Tests used:
BTK = target: T1, BTK (Homo sapiens, UniProt Q06187); assay: BTK degradation in TMD-8 cells (HTRF assay); format: cell-based; conditions: 6 h treatment, HTRF BTK degradation IC50 (DC50)
T1 construct: endogenous in cells; host or cells: TMD-8 cells
Experimental: TMD-8 cells were treated with compounds diluted in 0.2% DMSO, dilution was done according to the following protocol: (1) making 500×stock solution in DMSO from 1 mM by 6-fold dilution, total 8 doses were included; (2) making 2×solution in cell culture medium by transferring 0.5 μl 500×stock solution into 125 μl medium; (3) adding 15 μl of 2×solution to cells for incubation of 6 h.
After 6 h treatment, 10 μl 4×lysis buffer was added to each well; the plate was sealed and incubated for 30 min at room temperature on a plate shaker; Once the cells was lysed, 16 μL of cell lysate were transferred to a PE 384-well HTRF detection plate; 4 μL of pre-mixed HTRF antibodies were added to each well; the plate was covered with a plate sealer, and then spinned at 1000 rpm for 1 min, then incubated overnight at room temperature; the results were read on BMG PheraStar with HTRF protocol (337 nm-665 nm-620 nm).
(§1) The IC50 (DC50) value of a compound can be obtained by fitting the following equation Y=Bottom+(TOP−Bottom)/(1+((IC50/X)^hillslope)) wherein, X and Y are known values, and IC50, Hillslope, Top and Bottom are the parameters obtained by fitting with software. Y is the inhibition percentage (calculated from the equation), X is the concentration of the compound; IC50 is the concentration of the compound when the 50% inhibition is reached. The smaller the IC50 value is, the stronger the inhibitory ability of the compound is. Vice versa, the higher the IC50 value is, the weaker the ability the inhibitory ability of the compound is; Hillslope represents the slope of the fitted curve, generally around 1*; Bottom represents the minimum value of the curve obtained by data fitting, which is generally 0%±20%; Top represents the maximum value of the curve obtained by data fitting, which is generally 100%±20%. The experimental data were fitted by calculating and analyzing with Dotmatics data analysis software. HEK-293 Cell Treatment

HEK-293 cells = assay: HEK-293 cytotoxicity detection (CellTiter-Glo); format: cell-based; conditions: Homo sapiens, 72 h incubation, read-out: HEK293
Source text: as §1
HEK-293 cells were treated with compounds diluted in 0.2% DMSO, dilution was done according to the following protocol: (1) making 500×stock solution in DMSO from 5 mM by 4-fold dilution, total 8 doses were included; (2) making 2×solution in cell culture medium by transferring 0.5 ul 500×stock solution into 125 ul medium; (3) adding 50 ul of 2×solution to cells for incubation of 72 h.
25 μl of the CellTiter-Glo® Reagent [(Promega)—Cat No. G7572] was added to each well in the 96-well plate. The contents were mixed for 2 minutes on an orbital shaker to induce cell lysis. The plate was then allowed to incubate at room temperature for 10 minutes to stabilize luminescent signal. Luminescence was recorded on BMG PheraStar with luminescence protocol.
as §1, with “IC50” for “IC50 (DC50)”, “Wherein,” for “wherein,”, “software.” for “software. HEK-293 Cell Treatment”

T1 sequence (Q06187 whole entry): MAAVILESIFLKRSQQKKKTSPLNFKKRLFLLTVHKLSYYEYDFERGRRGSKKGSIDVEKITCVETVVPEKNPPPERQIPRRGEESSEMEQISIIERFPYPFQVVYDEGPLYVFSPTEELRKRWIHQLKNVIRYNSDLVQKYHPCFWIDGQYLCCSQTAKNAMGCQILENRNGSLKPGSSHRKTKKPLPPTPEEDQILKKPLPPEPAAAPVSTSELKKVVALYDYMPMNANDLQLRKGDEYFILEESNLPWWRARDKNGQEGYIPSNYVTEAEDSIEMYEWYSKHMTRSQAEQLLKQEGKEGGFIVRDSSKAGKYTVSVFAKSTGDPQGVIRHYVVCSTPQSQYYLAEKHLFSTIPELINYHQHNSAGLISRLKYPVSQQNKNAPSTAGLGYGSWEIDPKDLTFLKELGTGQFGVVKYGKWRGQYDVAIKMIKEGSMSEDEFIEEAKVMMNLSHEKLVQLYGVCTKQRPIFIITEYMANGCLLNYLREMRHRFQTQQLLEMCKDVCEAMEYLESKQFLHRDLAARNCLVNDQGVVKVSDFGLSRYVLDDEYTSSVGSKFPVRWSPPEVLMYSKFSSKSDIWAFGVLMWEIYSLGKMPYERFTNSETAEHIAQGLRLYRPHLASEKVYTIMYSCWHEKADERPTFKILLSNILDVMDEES

| SMILES | DC50 (BTK) | IC50 (HEK-293 cells) |
| --- | --- | --- |
| Cc1cc(-c2cc(Nc3ccc(N4CCN(C5CN(C6CN(c7ccc(C8CCC(=O)NC8=O)cc7)C6)C5)CC4)cn3)ncn2)ccc1[C@@H](C)NC(=O)c1nc(C(C)(C)C)no1 (stereo partly drawn) [Example 42, 3-(tert-butyl)-N-((1R)-1-(4-(6-((5-(4-(1′-(4-(2,6-dioxopiperidin-3-yl)phenyl)-[1,3′-biazetidin]-3-yl)piperazin-1-yl)pyridin-2-yl)amino)pyrimidin-4-yl)-2-methylphenyl)ethyl)-1,2,4-oxadiazole-5-carboxamide] | 1.2 nM | > 10000 nM |
| Cc1cc(-c2cc(Nc3ccc(N4CCN(CCn5cccc(CN6CCC(=O)NC6=O)c5=O)CC4)cn3)ncn2)ccc1[C@@H](C)NC(=O)c1nc(C(C)(C)C)no1 [Example 58, (R)-3-(tert-butyl)-N-(1-(4-(6-((5-(4-(2-(3-((2,4-dioxotetrahydropyrimidin-1(2H)-yl)methyl)-2-oxopyridin-1(2H)-yl)ethyl)piperazin-1-yl)pyridin-2-yl)amino)pyrimidin-4-yl)-2-methylphenyl)ethyl)-1,2,4-oxadiazole-5-carboxamide] | 0.276 nM | > 10000 nM |
| Cc1cc(-c2cc(Nc3ccc(N4CCN([C@H]5C[C@H](c6ccc(N[C@@H]7CCC(=O)NC7=O)cc6)C5)CC4)cn3)ncn2)ccc1[C@@H](C)NC(=O)c1nc(C(C)(C)C)no1 [Example 55, 3-(tert-butyl)-N—((R)-1-(4-(6-((5-(4-((1R,3r)-3-(4-(((R)-2,6-dioxopiperidin-3-yl)amino)phenyl)cyclobutyl)piperazin-1-yl)pyridin-2-yl)amino)pyrimidin-4-yl)-2-methylphenyl)ethyl)-1,2,4-oxadiazole-5-carboxamide] | 2.08 nM | > 10000 nM |
| Cc1cc(-c2cc(Nc3ccc(N4CCN(C5CN(C6CN(c7ccc(N8CCC(=O)NC8=O)cc7)C6)C5)CC4)cn3)ncn2)ccc1[C@@H](C)NC(=O)c1nc(C(C)(C)C)no1 [Example 39, (R)-3-(tert-butyl)-N-(1-(4-(6-((5-(4-(1′-(4-(2,4-dioxotetrahydropyrimidin-1(2H)-yl)phenyl)-[1,3′-biazetidin]-3-yl)piperazin-1-yl)pyridin-2-yl)amino)pyrimidin-4-yl)-2-methylphenyl)ethyl)-1,2,4-oxadiazole-5-carboxamide] | 0.209 nM | > 10000 nM |
| Cc1cc(-c2cc(Nc3ccc(N4CC5(CN(C(=O)C6CCN(c7ccc(N8CCC(=O)NC8=O)cc7)C6)C5)C4)cn3)ncn2)ccc1[C@@H](C)NC(=O)c1nc(C(C)(C)C)no1 (stereo partly drawn) [Example 37, 3-(tert-butyl)-N-((1R)-1-(4-(6-((5-(6-(1-(4-(2,4-dioxotetrahydropyrimidin-1(2H)-yl)phenyl)pyrrolidine-3-carbonyl)-2,6-diazaspiro [3.3]heptan-2-yl)pyridin-2-yl)amino)pyrimidin-4-yl)-2-methylphenyl)ethyl)-1,2,4-oxadiazole-5-carboxamide] | 0.835 nM | > 10000 nM |
| Cc1cc(-c2ccnc(Nc3ccc(N4CCN(C5CC6(CCN(c7ccc(N8CCC(=O)NC8=O)cc7)CC6)C5)CC4)cn3)n2)ccc1[C@@H](C)NC(=O)c1nc(C(C)(C)C)no1 [Example 68, (R)-3-(tert-butyl)-N-(1-(4-(2-((5-(4-(7-(4-(2,4-dioxotetrahydropyrimidin-1(2H)-yl)phenyl)-7-azaspiro[3.5]nonan-2-yl)piperazin-1-yl)pyridin-2-yl)amino)pyrimidin-4-yl)-2-methylphenyl)ethyl)-1,2,4-oxadiazole-5-carboxamide] | 17.4 nM | > 10000 nM |
| Cc1cc(-c2cc(Nc3ccc(N4CCN(CCC5CCN(c6ccc(C7CCC(=O)NC7=O)c(F)c6)CC5)CC4)cc3)ncn2)c(F)cc1[C@@H](C)NC(=O)c1nc(C(C)(C)C)no1 (stereo partly drawn) [Example 4, 3-(tert-butyl)-N-((1R)-1-(4-(6-((4-(4-(2-(1-(4-(2,6-dioxopiperidin-3-yl)-3-fluorophenyl)piperidin-4-yl)ethyl)piperazin-1-yl)phenyl)amino)pyrimidin-4-yl)-5-fluoro-2-methylphenyl)ethyl)-1,2,4-oxadiazole-5-carboxamide] | 16.9 nM | > 10000 nM |
| Cc1cc(-c2cc(Nc3ccc(N4CCC(CN5CCN(c6ccc(N7CCC(=O)NC7=O)cc6)CC5)CC4)cn3)ncn2)ccc1[C@@H](C)NC(=O)c1nc(C(C)(C)C)no1 [Example 21, (R)-3-(tert-butyl)-N-(1-(4-(6-((5-(4-((4-(4-(2,4-dioxotetrahydropyrimidin-1(2H)-yl)phenyl)piperazin-1-yl)methyl)piperidin-1-yl)pyridin-2-yl)amino)pyrimidin-4-yl)-2-methylphenyl)ethyl)-1,2,4-oxadiazole-5-carboxamide] | 2.11 nM | > 10000 nM |
| CCc1nc(Nc2cc(-c3ccc([C@@H](C)NC(=O)c4nc(C(C)(C)C)no4)c(C)c3)ncn2)ccc1N1CCN(CC2CCN(c3ccc(N4CCC(=O)NC4=O)cc3)CC2)CC1 [Example 60, (R)-3-(tert-butyl)-N-(1-(4-(6-((5-(4-((1-(4-(2,4-dioxotetrahydropyrimidin-1(2H)-yl)phenyl)piperidin-4-yl)methyl)piperazin-1-yl)-6-ethylpyridin-2-yl)amino)pyrimidin-4-yl)-2-methylphenyl)ethyl)-1,2,4-oxadiazole-5-carboxamide] | 3.93 nM | > 10000 nM |
| Cc1cc(-c2cc(Nc3ccc(N4CCN(C5CN(c6ccc(N7CCC(=O)NC7=O)cc6)C5)CC4)cn3)ncn2)ccc1[C@@H](C)NC(=O)c1nc(C(C)(C)C)no1 [Example 40, (R)-3-(tert-butyl)-N-(1-(4-(6-((5-(4-(1-(4-(2,4-dioxotetrahydropyrimidin-1(2H)-yl)phenyl)azetidin-3-yl)piperazin-1-yl)pyridin-2-yl)amino)pyrimidin-4-yl)-2-methylphenyl)ethyl)-1,2,4-oxadiazole-5-carboxamide] | 0.382 nM | > 10000 nM |
| Cc1cc(-c2cc(Nc3ccc(N4CCN(CC5CCN(c6ccc(N7CCC(=O)NC7=O)cc6)CC5)CC4)cn3)ncn2)ccc1[C@@H](C)NC(=O)c1nc(C(C)(C)C)no1 [Example 16, (R)-3-(tert-butyl)-N-(1-(4-(6-((5-(4-((1-(4-(2,4-dioxotetrahydropyrimidin-1(2H)-yl)phenyl)piperidin-4-yl)methyl)piperazin-1-yl)pyridin-2-yl)amino)pyrimidin-4-yl)-2-methylphenyl)ethyl)-1,2,4oxadiazole-5-carboxamide] | 1.29 nM | > 10000 nM |
| Cc1cc(-c2cc(Nc3ccc(N4CCN(CCc5cc(F)c([C@H]6CCC(=O)NC6=O)c(F)c5)CC4)cn3)ncn2)ccc1[C@@H](C)NC(=O)c1nc(C(C)(C)C)no1 [Example 46, 3-(tert-butyl)-N—((R)-1-(4-(6-((5-(4-(4-((R)-2,6-dioxopiperidin-3-yl)-3,5-difluorophenethyl)piperazin-1-yl)pyridin-2-yl)amino)pyrimidin-4-yl)-2-methylphenyl)ethyl)-1,2,4-oxadiazole-5-carboxamide] | – | > 10000 nM |
| Cc1cc(-c2cc(Nc3cccc(N4CCN(CC5CCN(c6ccc(N7CCC(=O)NC7=O)cc6)CC5)CC4)c3)ncn2)c(F)cc1[C@@H](C)NC(=O)c1nc(C(C)(C)C)no1 [Example 5, (R)-3-(tert-butyl)-N-(1-(4-(6-((3-(4-((1-(4-(2,4-dioxotetrahydropyrimidin-1(2H)-yl)phenyl)piperidin-4-yl)methyl)piperazin-1-yl)phenyl)amino)pyrimidin-4-yl)-5-fluoro-2-methylphenyl)ethyl)-1,2,4-oxadiazole-5-carboxamide] | – | > 10000 nM |

— patent US12521440B2, “Degradation of bruton's tyrosine kinase (BTK) by conjugation of BTK inhibitors with E3 ligase ligand and methods of use” (BeOne Medicines I GmbH, priority 2021, dated 2026)
